Target: HRas^G12V (Homo sapiens (Human), UniProt P01112, G12V)
Experiment: Dissociation constant by SPR
Assay type: binding
Procedure: SPR experiments were performed using the P4SPR from Affinité Instruments using Ni-NTA immobilization chips and his-tagged protein. Ni-NTA coated surfaces allow the immobilization of his-tagged proteins by chelation of histidine residues to the nickel ion. The sensor chip was inserted into a quad inlet model P4SPR (with 4 independent channels). Once the instrument was turned on, the baseline was stabilized by deionized (DI) water, followed by signal stabilization by the running buffer. His-tagged protein at 10 μg/mL was injected into all 4 channels of the P4SPR and was left to react for 20 min. The sensor chip was then washed with DI water. The lowest concentration of the ligand was injected into the channels of the P4SPR and was left to react for 10 min. The SPR shift was saved. Then, a higher concentration of the ligand was injected, and the sample injection steps were repeated until all 5 concentrations have been added. The KD of the binding interaction between the ligand and protein was determined by using the affinity curve fitting function in the P4SPR Control software.

Chain of HRas^G12V (P01112 1-166 G12V): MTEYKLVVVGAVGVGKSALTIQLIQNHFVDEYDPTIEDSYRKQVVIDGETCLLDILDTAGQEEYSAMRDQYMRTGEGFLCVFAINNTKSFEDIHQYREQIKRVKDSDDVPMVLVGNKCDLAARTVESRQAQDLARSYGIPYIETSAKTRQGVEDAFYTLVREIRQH

Kd: 31 µM
SMILES: CN(C)CC(=O)Nc1cccc(NC(=O)Cc2c[nH]c3cc(F)ccc23)c1 [compound 10097]

From patent publication US20240408064A1, “RAS INHIBITORS, COMPOSITIONS AND METHODS OF USE THEREOF” (GENETOLEAD INC., priority 2021, published 2024)
